According to ChEMBL document CHEMBL1201862, “PubChem BioAssay data set” (2004):
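All cell lines were grown in 96-well plates and treated with compound for 48 hours. Abbreviation: GI50, concentration required for 50% inhibition of growth.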 The source made the active and inactive calls. Rule as the data show it: active = GI50 up to about 1.1 µM and inactive = higher.

Assays:
Test in all cases: growth of human tumour cells (NCI), 48 h
SNB-78 = test system: SNB-78
K562 = test system: K562
DMS-114 = test system: DMS-114
SR = test system: SR
HOP-62 = test system: HOP-62
MOLT-4 = test system: MOLT-4
SK-MEL-2 = test system: SK-MEL-2
LXFL 529 = test system: LXFL 529
ACHN = test system: ACHN
IGROV-1 = test system: IGROV-1
M14 = test system: M14
UO-31 = test system: UO-31
SW-620 = test system: SW-620
OVCAR-5 = test system: OVCAR-5
SK-OV-3 = test system: SK-OV-3
UACC-257 = test system: UACC-257
OVCAR-8 = test system: OVCAR-8
SF-295 = test system: SF-295
OVCAR-4 = test system: OVCAR-4
NCI-H522 = test system: NCI-H522
786-0 = test system: 786-0
SN12C = test system: SN12C
XF498 = test system: XF498
EKVX = test system: EKVX
SNB-75 = test system: SNB-75
CCRF-CEM = test system: CCRF-CEM
HCT-116 = test system: HCT-116
LOX IMVI = test system: LOX IMVI
KM-20L2 = test system: KM-20L2
SF-268 = test system: SF-268
U-251 = test system: U-251
NCI-H23 = test system: NCI-H23
SK-MEL-5 = test system: SK-MEL-5
RXF 631 = test system: RXF 631
UACC-62 = test system: UACC-62
HCC 2998 = test system: HCC 2998
RPMI-8226 = test system: RPMI-8226
SNB-19 = test system: SNB-19
KM12 = test system: KM12
HL-60 = test system: HL-60
HOP-18 = test system: HOP-18
A549 = test system: A549
M19-MEL = test system: M19-MEL
HOP-92 = test system: HOP-92
COLO 205 = test system: COLO 205
RXF 393 = test system: RXF 393
SF-539 = test system: SF-539
NCI-H226 = test system: NCI-H226
Malme-3M = test system: Malme-3M
A498 = test system: A498
DLD-1 = test system: DLD-1
HCT-15 = test system: HCT-15
SK-MEL-28 = test system: SK-MEL-28
CAKI-1 = test system: CAKI-1
TK-10 = test system: TK-10
NCI-H460 = test system: NCI-H460
HT-29 = test system: HT-29
OVCAR-3 = test system: OVCAR-3
DMS-273 = test system: DMS-273

CC/C(SC)=[N+](\C)[O-]
GI50 (SNB-78): > 100 µM (inactive) | GI50 (K562): 44.2 µM (inactive) | GI50 (DMS-114): > 39 µM (inactive) | GI50 (SR): 25.8 µM (inactive) | GI50 (HOP-62): > 100 µM (inactive) | GI50 (MOLT-4): 32.7 µM (inactive) | GI50 (SK-MEL-2): > 100 µM (inactive) | GI50 (LXFL 529): > 100 µM (inactive) | GI50 (ACHN): > 100 µM (inactive) | GI50 (IGROV-1): > 100 µM (inactive) | GI50 (M14): > 100 µM (inactive) | GI50 (UO-31): > 100 µM (inactive) | GI50 (SW-620): > 100 µM (inactive) | GI50 (OVCAR-5): > 100 µM (inactive) | GI50 (SK-OV-3): > 100 µM (inactive) | GI50 (UACC-257): > 100 µM (inactive) | GI50 (OVCAR-8): > 100 µM (inactive) | GI50 (SF-295): > 100 µM (inactive) | GI50 (OVCAR-4): > 100 µM (inactive) | GI50 (NCI-H522): > 43.1 µM (inactive) | GI50 (786-0): > 100 µM (inactive) | GI50 (SN12C): > 100 µM (inactive) | GI50 (XF498): > 100 µM (inactive) | GI50 (EKVX): > 100 µM (inactive) | GI50 (SNB-75): > 67.9 µM (inactive) | GI50 (CCRF-CEM): 15.5 µM (inactive) | GI50 (HCT-116): > 46.9 µM (inactive) | GI50 (LOX IMVI): > 41.3 µM (inactive) | GI50 (KM-20L2): > 100 µM (inactive) | GI50 (SF-268): > 100 µM (inactive) | GI50 (U-251): > 100 µM (inactive) | GI50 (NCI-H23): > 100 µM (inactive) | GI50 (SK-MEL-5): > 100 µM (inactive) | GI50 (RXF 631): > 100 µM (inactive) | GI50 (UACC-62): > 100 µM (inactive) | GI50 (HCC 2998): > 100 µM (inactive) | GI50 (RPMI-8226): > 93.1 µM (inactive) | GI50 (SNB-19): > 100 µM (inactive) | GI50 (KM12): > 100 µM (inactive) | GI50 (HL-60): 17.9 µM (inactive) | GI50 (HOP-18): > 100 µM (inactive) | GI50 (A549): > 100 µM (inactive) | GI50 (M19-MEL): > 100 µM (inactive) | GI50 (HOP-92): > 100 µM (inactive) | GI50 (COLO 205): > 44.8 µM (inactive) | GI50 (RXF 393): > 100 µM (inactive) | GI50 (SF-539): > 100 µM (inactive) | GI50 (NCI-H226): > 100 µM (inactive) | GI50 (Malme-3M): > 100 µM (inactive) | GI50 (A498): > 100 µM (inactive) | GI50 (DLD-1): > 45.9 µM (inactive) | GI50 (HCT-15): 57.9 µM | GI50 (SK-MEL-28): > 100 µM (inactive) | GI50 (CAKI-1): > 100 µM (inactive) | GI50 (TK-10): > 100 µM (inactive) | GI50 (NCI-H460): > 100 µM (inactive) | GI50 (HT-29): > 100 µM (inactive) | GI50 (OVCAR-3): > 100 µM (inactive)

Cc1cn([C@@H]2C[C@H](CO)[C@@H](O)C2)c(=O)[nH]c1=O
GI50 (SNB-78): > 100 µM (inactive) | GI50 (K562): > 100 µM (inactive) | GI50 (DMS-114): > 100 µM (inactive) | GI50 (HOP-62): > 100 µM (inactive) | GI50 (MOLT-4): > 100 µM (inactive) | GI50 (SK-MEL-2): > 100 µM (inactive) | GI50 (LXFL 529): > 100 µM (inactive) | GI50 (ACHN): > 100 µM (inactive) | GI50 (IGROV-1): > 100 µM (inactive) | GI50 (M14): > 100 µM (inactive) | GI50 (UO-31): > 100 µM (inactive) | GI50 (SW-620): > 100 µM (inactive) | GI50 (OVCAR-5): > 100 µM (inactive) | GI50 (SK-OV-3): > 100 µM (inactive) | GI50 (UACC-257): > 100 µM (inactive) | GI50 (OVCAR-8): > 100 µM (inactive) | GI50 (SF-295): > 100 µM (inactive) | GI50 (OVCAR-4): > 100 µM (inactive) | GI50 (NCI-H522): > 100 µM (inactive) | GI50 (SN12C): > 100 µM (inactive) | GI50 (XF498): > 100 µM (inactive) | GI50 (EKVX): > 100 µM (inactive) | GI50 (SNB-75): 78.9 µM (inactive) | GI50 (DMS-273): > 100 µM (inactive) | GI50 (CCRF-CEM): > 100 µM (inactive) | GI50 (HCT-116): > 100 µM (inactive) | GI50 (LOX IMVI): > 100 µM (inactive) | GI50 (KM-20L2): > 100 µM (inactive) | GI50 (SF-268): > 100 µM (inactive) | GI50 (U-251): > 100 µM (inactive) | GI50 (NCI-H23): > 100 µM (inactive) | GI50 (RXF 631): > 100 µM (inactive) | GI50 (UACC-62): > 100 µM (inactive) | GI50 (HCC 2998): > 100 µM (inactive) | GI50 (SNB-19): > 100 µM (inactive) | GI50 (KM12): > 100 µM (inactive) | GI50 (HL-60): > 100 µM (inactive) | GI50 (HOP-18): > 100 µM (inactive) | GI50 (A549): > 100 µM (inactive) | GI50 (M19-MEL): > 100 µM (inactive) | GI50 (HOP-92): > 100 µM (inactive) | GI50 (COLO 205): > 100 µM (inactive) | GI50 (SF-539): > 100 µM (inactive) | GI50 (NCI-H226): > 100 µM (inactive) | GI50 (Malme-3M): > 100 µM (inactive) | GI50 (DLD-1): > 100 µM (inactive) | GI50 (HCT-15): > 100 µM | GI50 (SK-MEL-28): > 100 µM (inactive) | GI50 (NCI-H460): > 100 µM (inactive) | GI50 (HT-29): > 100 µM (inactive) | GI50 (OVCAR-3): > 100 µM (inactive)
